From patent US20240190994A1, “FUSION PROTEIN BETWEEN ANTIGEN-BINDING MOLECULE AND STREPTAVIDIN VARIANT” (The University of Tokyo, priority 2021, published 2024)

How the values were obtained:
[1] = tested on: KPL-4 xenograft (HER2-positive breast cancer); assay: in vivo breast cancer tumor model experiment, tumor volume; design: species or system BALB/cSlc-nu/nu nude mice
Experimental: The KPL-4 cell line was maintained in DMEM (low glucose) (FUJIFILM Wako Pure Chemical Corporation, Osaka, Japan) supplemented with 10% FBS, 100 U/mL penicillin, and 100 μg/mL streptomycin (#15140122, Thermo Fisher Scientific, Waltham, MA, USA) (Kurebayashi J, Otsuki T, Tang CK, et al. Isolation and characterization of a new human breast cancer cell line, KPL-4, expressing the Erb B family receptors and interleukin-6. Br J Cancer. 1999; 79: 707-717. doi:10.1038/sj.bjc.6690114). The KPL-4 cells (7,500,000) were subcutaneously transplanted into the thigh of BALB/cSlc-nu/nu nude mice (Sankyo Lab Service, Inc., Tokyo, Japan). Proliferation of the subcutaneous tumor was monitored by measuring a tumor volume (0.5×length×width^2) using Vernier calipers, and the body weight of the animals was then monitored as an indicator of treatment-related toxicity.
In this study, in order to evaluate tumor recurrence, the observation period was set to be […] after the initial treatment. […] Finally, the xenograft mouse models were sacrificed at 97 days after the treatment, namely, at 19 days or more after the second treatment.
Preparation of ZHER2:342-Cupid-His and Psyche-Ax-SiPC was as previously reported (Yamatsugu K, Katoh H, Yamashita T, et al., Antibody mimetic drug conjugate manufactured by high-yield Protein Expr Purif. 2022; 192: 106043. doi:10.1016/j.pep.2021 106043). Briefly speaking, Psyche-Ax-SiPC solubilized in dimethyl sulfoxide at a concentration of 5 mM was preserved as a stock solution at −80° C. In order to prepare a complex, ZHER2:342-Cupid-His and Psyche-Ax-SiPC were mixed with each other at a molar ratio of 1:2 in a dark place on ice for 10 minutes. A concentrate of ZHER2:342-Cupid-His-Ax-SiPC was diluted using a phosphate-buffered saline.
Twenty hours after the injection, the mice in the ZHER2:342-Cupid-His-Ax-SiPC group were irradiated with a 690-nm light emitting diode light (Yamato Scientific Co., Ltd., Tokyo, Japan) at 230 J/cm^−2. Forty-eight hours after the initial light irradiation, the tumor was irradiated again in the same manner as that described above.

[2] = tested on: KPL-4 xenograft tumor site, skin and major organs; assay: pathological analysis (H & E histology) of xenograft mouse models; type: in vivo, BALB/cSlc-nu/nu nude mice; settings: 97th day
Excerpt: Skin samples from xenograft tumor sites, and samples from other important organs including lung, heart, kidney, liver and gastrointestinal tract, were obtained from the mice. […] Stained slides were dehydrated again by being immersed in ethanol and then being immersed in xylene. […] The H & E-stained slides were histologically examined using the OLYMPUS cellSens Standard system (OLYMPUS, Tokyo, Japan).

trastuzumab emtansine [Kadcyla]
tumor size after the first treatment ([1]; Kadcyla 300 μg/mouse, ZHER2:342-Cupid-His-Ax-SiPC 150 μg/mouse with 690-nm light, n=10, FIG. 11): a reduction in the tumor size was observed | cases with tumor volume decreased to 0 mm^3 ([1]; at 21 days after the injection, n=10): 1 case | course of tumor volume after the treatment ([1]; single administration, FIGS. 11B-D): gradually decreased | tumor size in the long term after single treatment ([1]; up to 2 months after the injection): steady decrease in the tumor size | pathological response [2]: pathological complete remission was achieved | metastatic tumors in lymph nodes or distant organs ([2]; FIG. 13 and FIG. 14): No metastatic tumors were observed | residual tumor cells in the subcutaneous region around the xenograft tumor site ([2]; n=10, FIG. 13 and FIG. 14): no residual tumor cells were observed
